Data published in US20080280920A1, “Plasminogen Activator Inhibitor-1 Inhibitors” (priority 2005, published 2008).

Columns and labels:
[1] = molecular target: T1, PAI-1 interaction with vitronectin (Homo sapiens, UniProt P05121); assay: PAI-1 vitronectin interaction ELISA; type: binding; conditions: 15 nM PAI-1, vitronectin coated plates
T1 construct: purchased Molecular Innovations
Experimental: Principle: This ELISA assay is based on the interaction of wildtype human PAI-1 (aa 110-145) with the N-terminal somatomedin B-like (SMB) domain (aa 1-40) on vitronectin. PAI-1 was allowed to bind to vitronectin coated plates. The bound PAI-1 was detected with a HRP-conjugated polyclonal goat anti-human PAI-1 antibody using a standard ELISA method. In order to screen these compounds for their ability to disrupt PAI-1's interaction with vitronectin, PAI-1 was pre-incubated with various concentrations of the lead compounds before being allowed to bind to vitronectin.
Method: Human monomeric vitronectin (Vn; Molecular Innovations) was diluted to a concentration of 2.5 μg/ml in a buffer containing 100 mM Na2CO3, pH 9.6. […]
In a separate 96-well microtiter plate 20 μL per well of wildtype human PAI-1 (15 nM final concentration) was added with or without various concentrations of lead compounds (1 μM to 1000 μM final concentration) and incubated at room temperature for 15 minutes on a rotating shaker. […] Optical density was measured at 450 nm on a SoftMax PrO™ plate reader.
Where vitronectin inhibition was evident, IC50 values for a test compound were calculated by fitting a non-linear sigmoidal regression curve to log micromolar concentration versus optical density data.

wildtype human PAI-1 = molecular target: T2, wildtype human PAI-1 (Homo sapiens, UniProt P05121); assay: PAI-1/uPA assay (residual uPA activity, fluorescent substrate SpectroFluor); type: biochemical; conditions: for Percent PAI-1 inhibition: at the concentration given, percent of activity of untreated PAI-1; for Conc. of compound required for PAI-1 inhibition: concentration giving the percent inhibition, 6 nM PAI-1, 8 nM uPA; for Conc. of compound required for PAI-1 inhibition (result in words): within the concentration range tested
T2 construct: purchased Molecular Innovations Lot# HWT-804
T2 sequence (P05121 24-402): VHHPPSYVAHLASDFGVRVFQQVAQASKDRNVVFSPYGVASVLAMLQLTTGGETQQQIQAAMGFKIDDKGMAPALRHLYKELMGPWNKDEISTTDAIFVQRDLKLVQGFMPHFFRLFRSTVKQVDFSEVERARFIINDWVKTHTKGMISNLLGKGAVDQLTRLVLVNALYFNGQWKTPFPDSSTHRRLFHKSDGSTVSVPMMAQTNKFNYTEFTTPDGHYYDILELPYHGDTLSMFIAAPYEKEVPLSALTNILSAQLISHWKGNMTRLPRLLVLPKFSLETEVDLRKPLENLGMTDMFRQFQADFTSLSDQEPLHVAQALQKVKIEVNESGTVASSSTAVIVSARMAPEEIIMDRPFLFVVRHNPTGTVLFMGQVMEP
Experimental: Principle: The assay is based on using a fluorescent substrate (SpectroFluor) to measure residual uPA following inhibition of uPA by PAI-1. PAI-1 used in the assay is pre-treated in the presence of increasing concentrations of the lead compounds to screen for any inhibitory effects on PAI-1. Method: This assay was performed in 96 well microtiter plates. The concentrations of uPA (8 nM) and PAI-1 (6 nM) used in this assay were carefully optimized when using the fluorescent substrate, SpectroFluor™. Stock solutions (10 mM) of all lead compounds were prepared fresh in DMSO. […] 20 μl of 6 nM wildtype human PAI-1 (Molecular Innovations, Lot# HWT-804) was incubated for 15-20 minutes at room temperature in 96 well microtiter plates either with buffer, (50 mM HEPES, 150 mM NaCl, 0.05% Tween-20, 1% BSA, pH 6.6) or various concentrations (10 nM to 100 μM final concentration) of lead compounds in a total volume of 80 μl. A 20 μl aliquot of 8 nM uPA (HMW) solution in 0.05M Tris Buffered™ saline (TBS), pH 8.4 was added to each well and the mixture incubated for an additional 5 minutes at RT. The proteolytic reaction was initiated by addition of 50 μl of 0.1 mM SpectroFluor (Spectrozyme UK Fluorogenic substrate) to each well. The kinetics of the free chromophore, 7-amino-4-methylcoumarin (AMC) released in the course of peptide cleavage by the protease, uPA, was monitored for 30 minutes at 37° C. on a spectrofluorometric microplate reader with an excitation wavelength of 360 nm and emission wavelength of 440 nm. Kinetic data regarding the rate of substrate cleavage by uPA was acquired with Softmax PrO™ software. The difference between the residual uPA activity in the presence or absence of untreated PAI-1, at the molar ratio used, was considered as the “total” PAI-1 activity (100%). The inhibition of uPA by PAI-1 treated with lead compounds was expressed as a percentage of the initial activity of untreated PAI-1. Controls were performed during each experiment to ensure the nearly complete inhibition of uPA by untreated PAI-1 and also to ensure the absence of any direct effect of the lead compounds on uPA alone or on SpectroFluor.

T1 sequence (P05121 24-402): as above

Row | IC50 [1] | Percent PAI-1 inhibition (wildtype human PAI-1) | Conc. of compound required for PAI-1 inhibition (wildtype human PAI-1) | Conc. of compound required for PAI-1 inhibition (result in words) (wildtype human PAI-1) | SMILES
1 | 910 µM | 23 | 10 µM | – | CCOC(=O)[C@H](CCCNC(=N)NS(=O)(=O)c1c(C)cc(OC)c(C)c1C)NC(=O)N[C@@H](Cc1csc2ccccc12)C(=O)OCC [Compound Q012059, (2S)-2-[({[(1S)-1-carboxy-2-(thianaphthen-3-yl)ethyl]amino}carbonyl)amino]-5-({imino[(4-methoxy-2,3,6-trimethylphenylsulfonyl)amino]methyl}amino)pentanoic acid diethyl ester]
2 | 340 µM | 57 | 5 µM | – | COc1cc(CNCCCn2ccnc2)cc(CN2CCN(c3ncccn3)CC2)c1O [Compound Q012110, 2-Methoxy-4-({3-[(1H-imidazol-1-yl)propyl]amino}methyl)-6-[(4-pyrimidin-2-ylpiperazin-1-yl)methyl]phenol]
3 | – | 51 | 0.05 µM | – | CCOC(=O)[C@H](Cc1csc2ccccc12)NC(=O)COc1ccc2c(C)cc(=O)oc2c1 [Compound Q012055, (S)—N-[(4-methyl-2-oxo-2H-chromen-7-yl)oxyacetyl]-3-(thianaphthen-3-yl)alanine ethyl ester]
4 | – | – | – | No inhibition | COc1cc(CNCCc2ccccn2)cc(CN2CCN(c3ccccn3)CC2)c1O [Compound Q012119T, 2-Methoxy-4-({[2-(pyridin-2-yl)ethyl]amino}methyl)-6-[(4-pyridin-2-ylpiperazin-1-yl)methyl]phenol]
5 | – | 23 | 1 µM | – | O=C(N[C@@H](Cc1csc2ccccc12)C(=O)O)[C@@H]1CCCNC1 [Compound Q012129, (2S)-3-(thianaphthen-3-yl)-2-({[(3R)-piperidin-3-yl]carbonyl}amino)propanoic acid]
6 | – | – | – | No inhibition | COc1cc(CN[C@@H](Cc2ccccc2)C(=O)O)cc(CN2CCN(c3ccccn3)CC2)c1O [Compound Q012148]
7 | – | 13 | 0.05 µM | – | CCOC(=O)[C@H](Cc1csc2ccccc12)NC(=O)COc1ccc2c(C(F)(F)F)cc(=O)oc2c1 [Compound Q012124, (2S)-2-({[2-oxo-4-(trifluoromethyl)-2H-chromen-7-yl]oxy}acetyl)amino-3-(thianaphthen-3-yl)propanoic acid ethyl ester]
8 | – | – | – | No inhibition | COc1cc(CNc2ccc(C(=O)O)cc2)cc(CN2CCN(c3ccccn3)CC2)c1O [Compound Q012146]
9 | – | 19 | 50 µM | – | CCOC(=O)[C@H](Cc1csc2ccccc12)NC(=O)[C@@H]1CCCN(C(=O)OC(C)(C)C)C1 [Compound Q012126, (2S)-3-(thianaphthen-3-yl)-2-({[(3R)—N-t-butyloxycarbonylpiperidin-3-yl]carbonyl}amino)propanoic acid ethyl ester]
10 | – | 35 | 10 µM | – | CN1C(=N)N/C(=C\c2csc3ccccc23)C1=O [Compound Q012038]
